Key:
[1] = DPPH radical scavenging activity; conditions: soluble (70% ethanol) extracts; 30 min, 517 nm
Method: The method previously described by Ofosu et al. was used to measure DPPH radical scavenging by ethanol extracts using a 24-well microplate reader. Briefly, 200 μL sample extracts of various concentrations were added to 2 mL freshly made DPPH radical solution (100 μM). After 30 min incubation at room temperature, absorbance was read at 517 nm.

[2] = ABTS radical scavenging activity; conditions: soluble (70% ethanol) extracts; 734 nm
Method: The ABTS radical scavenging assay described by Ofosu et al. was used. ABTS^+ stock solution was prepared by reacting equal volumes of 7 mM ABTS solution with 2.45 mM potassium persulfate solution in the dark at room temperature for 16 h. Using ethanol, the ABTS+ stock solution was diluted to obtain an absorbance of approximately 0.70 at 734 nm. Appropriately, 80 μL sample extracts of various concentrations were added to 1 mL freshly prepared ABTS+ radical solution, and the absorbance was read at 734 nm.

[3] = test system: advanced glycation end-products (AGEs) formation; assay: Inhibition of protein glycation (BSA/D-glucose, fluorescent AGEs); conditions: BSA + D-glucose, 37 °C for a week
Method: The procedure by Sekhon-Loodu and Rupasinghe was adapted with slight modification. Bovine serum albumin (BSA), D-glucose and aminoguanidine were dissolved in 0.2 M phosphate buffer saline (pH 7.4) containing sodium azide (0.02% w/v). Equal volumes containing BSA (5.0 mg/mL) and D-glucose (36 mg/mL) and the negative control or the test samples or aminoguanidine at different concentrations (0.01, 0.02, 0.04, 0.05, 0.1, 0.2, 0.5 and 1.0 mg/mL) were added to reach a final volume of 1.0 mL. Aminoguanidine, a known AGE formation inhibitor, was used as the positive control. The mixtures in Eppendorf tubes were incubated in triplicate at 37 °C for a week. Fluorescent AGEs were measured using a microplate reader at 340 nm excitation and 420 nm emission wavelengths. Experiments were conducted in triplicates. The percentage of the AGE inhibition was calculated as shown below:(3) Inhibition (%)=[1−(Fluorescent of the test/Fluorescent of control)]×100
The results were expressed in terms of IC50 representing the concentration of test extracts required to cause the inhibition of AGE formation by 50%.

Row | SMILES | DPPH radical scavenging activity IC50 [1] [µg/mL] | ABTS radical scavenging activity IC50 [2] [µg/mL] | AGEs formation inhibitory activity IC50 [3] [µg/mL]
1 | Cc1c(C)c2c(c(C)c1O)CCC(C)(C(=O)O)O2 (stereo not drawn) [Trolox, 6-hydroxy-2,5,7,8-tetramethylchromane-2-carboxylic acid] | 48.7 ± 2.19 | 74.60 ± 1.45 | –
2 | N=C(N)NN [aminoguanidine] | – | – | 52.30

Source: publication PMC7355972, “Flavonoids in Decorticated Sorghum Grains Exert Antioxidant, Antidiabetic and Antiobesity Activities” (Molecules, 2020)
